pIC50: −log10 of the molar value.
Test system: ALP in NHAC (normal human articular chondrocytes)
Experiment: Alkaline Phosphatase (ALP) activity assay: ALP staining and quantitation in NHACs (prevention of chondrocyte hypertrophy)
Format: cell-based
Conditions: Chondrocyte, 288 h, human IL-1 beta 10 ng/mL, 12 days; for pIC50: Fast Blue RR staining, high content imaging; for Emax: read-out: ALP in NHAC (% Efficacy)
Protocol: The compounds of the present invention were evaluated in the Alkaline Phosphatase (ALP) activity assay to determine the ability of the compounds to prevent chondrocyte hypertrophy in normal human articular chondrocytes (NHACs).
Normal human articular chondrocytes (NHACs) were purchased from PromoCell (Heidelberg, Germany) and grown in Chondrocyte Growth Medium (CGM; Lonza, Walkersville, Md.).
NHACs were expanded in Chondrocyte Growth Medium (CGM) from Lonza until they reached a 60-80% confluency. To initiate differentiation, 7,500 cells were plated/well with indicated test compound dose in 384-well Cell Carrier Ultra plates (Perkin Elmer) with DMEM (SH30022—HyClone) containing 10% FBS (35-015-CV—Corning), 1% Pen/Strep antibiotics (SV30010—HyClone), and 1% Normocin (50 mg/mL—InvivoGen). Cells with test compounds were incubated at 37° C., 5% CO2 for 5 hours and then added human IL-1 beta (AF-200-1B—Peprotech) to each well at a final concentration of 10 ng/mL and incubated at 37° C., 5% CO2 for 12 days.
To detect the presence of hypertrophic cells, NHACs were fixed with 4% paraformaldehyde and Hoechst 33342 (Invitrogen) dye for 30 minutes, rinsed in PBS, then stained with Fast Blue RR Salt (F0500—Sigma) with Naphthol AS-MX Phosphate Alkaline Solution, 0.25% (855—Sigma-Aldrich).
The staining was imaged by fluoresecent microscopy, using the 561 nm wavelength, and/or quantified by high content imaging with the ImageXpress Confocal (Molecular Devices, Sunnyvale, CA). Data analyses were performed with a customized multiwavelength cell-scoring application The activity of the compounds of the present invention in the ALP assay is summarized in Table 2.

## COc1cc([C@@]23C[C@]2(C(=O)Nc2cc(Cl)cc(C(F)(F)F)c2)[C@H]2C[C@H](O)[C@@H]3O2)ccn1 (racemic) [Example 71, rac-(1R,2R,4S,5R,6S)—N-(3-chloro-5-(trifluoromethyl)phenyl)-6-hydroxy-4-(2-methoxypyridin-4-yl)-8-oxatricyclo[3.2.1.02,4]octane-2-carboxamide]
  pIC50: < 4.52
  Emax: 9%

## Cn1cc([C@@]23C[C@]2(C(=O)Nc2ccc(C#N)c(C(F)(F)F)c2)[C@H]2C[C@H](O)[C@@H]3O2)c(C(F)(F)F)n1 (racemic) [Example 68, rac-(1R,2R,4S,5R,6S)—N-(4-cyano-3-(trifluoromethyl)phenyl)-6-hydroxy-4-(1-methyl-3-(trifluoromethyl)-1H-pyrazol-4-yl)-8-oxatricyclo[3.2.1.02,4]octane-2-carboxamide]
  pIC50: < 4.52
  Emax: 50%

## Cn1cc([C@@]23C[C@]2(C(=O)Nc2cccc(C(F)(F)F)c2)[C@H]2C[C@H](O)[C@@H]3O2)c(C(F)(F)F)n1 (racemic) [Example 49, rac-(1R,2R,4S,5R,6S)-6-hydroxy-4-(1-methyl-3-(trifluoromethyl)-1H-pyrazol-4-yl)-N-(3-(trifluoromethyl)phenyl)-8-oxatricyclo[3.2.1.02,4]octane-2-carboxamide]
  pIC50: < 4.52
  Emax: 35%

## O=C(Nc1cccc(C(F)(F)F)c1)[C@]12C[C@@]1(c1cccc(C(F)(F)F)c1)[C@H]1O[C@@H]2C[C@@H]1O (racemic) [Example 67, rac-(1R,2R,4S,5R,6S)-6-hydroxy-N,4-bis(3-(trifluoromethyl)phenyl)-8-oxatricyclo[3.2.1.02,4]octane-2-carboxamide]
  pIC50: 4.57
  Emax: 54%

## Cc1c(NC(=O)[C@]23C[C@@]2(c2ccnc(F)c2)[C@H]2O[C@@H]3C[C@@H]2O)cccc1C(F)(F)F (racemic) [Example 10, rac-(1R,2R,4S,5R,6S)-4-(2-fluoropyridin-4-yl)-6-hydroxy-N-(2-methyl-3-(trifluoromethyl)phenyl)-8-oxatricyclo[3.2.1.02,4]octane-2-carboxamide]
  pIC50: < 4.52
  Emax: 6%

## COc1cc([C@@]23C[C@]2(C(=O)Nc2cccc(C(F)(F)F)c2)[C@H]2C[C@H](O)[C@@H]3O2)ccn1 (racemic) [Example 26, rac-(1R,2R,4S,5R,6S)-6-hydroxy-4-(2-methoxypyridin-4-yl)-N-(3-(trifluoromethyl)phenyl)-8-oxatricyclo[3.2.1.02,4]octane-2-carboxamide]
  pIC50: < 4.52
  Emax: 5%

## Cc1ccc(C(F)(F)F)cc1NC(=O)[C@]12C[C@@]1(c1cn(C)nc1C(F)(F)F)[C@H]1O[C@@H]2C[C@@H]1O (racemic) [Example 53, rac-(1R,2R,4S,5R,6S)-6-hydroxy-4-(1-methyl-3-(trifluoromethyl)-1H-pyrazol-4-yl)-N-(2-methyl-5-(trifluoromethyl)phenyl)-8-oxatricyclo[3.2.1.02,4]octane-2-carboxamide]
  pIC50: < 4.52
  Emax: 23%

## Cn1cc([C@@]23C[C@]2(C(=O)Nc2cc(F)cc(C(F)(F)F)c2)[C@H]2C[C@H](O)[C@@H]3O2)c(C(F)(F)F)n1 (racemic) [Example 56, rac-(1R,2R,4S,5R,6S)—N-(3-fluoro-5-(trifluoromethyl)phenyl)-6-hydroxy-4-(1-methyl-3-(trifluoromethyl)-1H-pyrazol-4-yl)-8-oxatricyclo[3.2.1.02,4]octane-2-carboxamide]
  pIC50: < 4.52
  Emax: 30%

## COc1cc([C@@]23C[C@]2(C(=O)Nc2cc(C#N)cc(C(F)(F)F)c2)[C@H]2C[C@H](O)[C@@H]3O2)ccn1 (racemic) [Example 72, rac-(1R,2R,4S,5R,6S)—N-(3-cyano-5-(trifluoromethyl)phenyl)-6-hydroxy-4-(2-methoxypyridin-4-yl)-8-oxatricyclo[3.2.1.02,4]octane-2-carboxamide]
  pIC50: < 4.52
  Emax: 37%

## Cc1cc(NC(=O)[C@]23C[C@@]2(c2ccnc(F)c2)[C@H]2O[C@@H]3C[C@@H]2O)cc(C(F)(F)F)c1 (racemic) [Example 12, rac-(1R,2R,4S,5R,6S)-4-(2-fluoropyridin-4-yl)-6-hydroxy-N-(3-methyl-5-(trifluoromethyl)phenyl)-8-oxatricyclo[3.2.1.02,4]octane-2-carboxamide]
  pIC50: < 4.52
  Emax: 21%

## Cn1cc([C@@]23C[C@]2(C(=O)Nc2cc(C(F)(F)F)ccc2C#N)[C@H]2C[C@H](O)[C@@H]3O2)c(C(F)(F)F)n1 (racemic) [Example 69, rac-(1R,2R,4S,5R,6S)—N-(2-cyano-5-(trifluoromethyl)phenyl)-6-hydroxy-4-(1-methyl-3-(trifluoromethyl)-1H-pyrazol-4-yl)-8-oxatricyclo[3.2.1.02,4]octane-2-carboxamide]
  pIC50: 5.74
  Emax: 88%

## N#Cc1ccc(C(F)(F)F)cc1NC(=O)[C@]12C[C@@]1(c1cccc(C(F)(F)F)c1)[C@H]1O[C@@H]2C[C@@H]1O (racemic) [Example 80, rac-(1R,2R,4S,5R,6S)—N-(2-cyano-5-(trifluoromethyl)phenyl)-6-hydroxy-4-(3-(trifluoromethyl)phenyl)-8-oxatricyclo[3.2.1.02,4]octane-2-carboxamide]
  pIC50: 5.66
  Emax: 76%

## CCOc1cc(C(F)(F)F)cc(NC(=O)[C@]23C[C@@]2(c2ccnc(F)c2)[C@H]2O[C@@H]3C[C@@H]2O)n1 (racemic) [Example 8, rac-(1R,2R,4S,5R,6S)—N-(6-ethoxy-4-(trifluoromethyl)pyridin-2-yl)-4-(2-fluoropyridin-4-yl)-6-hydroxy-8-oxatricyclo[3.2.1.02,4]octane-2-carboxamide]
  pIC50: < 4.52
  Emax: 26%

## COc1cc([C@@]23C[C@]2(C(=O)Nc2cc(C(F)(F)F)cc(C(F)(F)F)c2)[C@H]2C[C@H](O)[C@@H]3O2)ccn1 (racemic) [Example 37, rac-(1R,2R,4S,5R,6S)—N-(3,5-bis(trifluoromethyl)phenyl)-6-hydroxy-4-(2-methoxypyridin-4-yl)-8-oxatricyclo[3.2.1.02,4]octane-2-carboxamide]
  pIC50: < 4.52
  Emax: 0%

## O=C(Nc1cc(C(F)(F)F)ccn1)[C@]12C[C@@]1(c1ccnc(F)c1)[C@H]1O[C@@H]2C[C@@H]1O (racemic) [Example 1, rac-(1R,2R,4S,5R,6S)-4-(2-fluoropyridin-4-yl)-6-hydroxy-N-(4-(trifluoromethyl)pyridin-2-yl)-8-oxatricyclo[3.2.1.02,4]octane-2-carboxamide]
  pIC50: < 4.52
  Emax: 28%

## COc1ccc(NC(=O)[C@]23C[C@@]2(c2cn(C)nc2C(F)(F)F)[C@H]2O[C@@H]3C[C@@H]2O)cc1C(F)(F)F (racemic) [Example 60, rac-(1R,2R,4S,5R,6S)-6-hydroxy-N-(4-methoxy-3-(trifluoromethyl)phenyl)-4-(1-methyl-3-(trifluoromethyl)-1H-pyrazol-4-yl)-8-oxatricyclo[3.2.1.02,4]octane-2-carboxamide]
  pIC50: < 4.52
  Emax: 27%

## Cn1cc([C@@]23C[C@]2(C(=O)Nc2cc(C(F)(F)F)c(Cl)cn2)[C@H]2C[C@H](O)[C@@H]3O2)c(C(F)(F)F)n1 (racemic) [Example 45, rac-(1R,2R,4S,5R,6S)—N-(5-chloro-4-(trifluoromethyl)pyridin-2-yl)-6-hydroxy-4-(1-methyl-3-(trifluoromethyl)-1H-pyrazol-4-yl)-8-oxatricyclo[3.2.1.02,4]octane-2-carboxamide]
  pIC50: < 4.52
  Emax: 46%

## O=C(Nc1cc(C(F)(F)F)ccn1)[C@]12C[C@@]1(c1cccc(C(F)(F)F)c1)[C@H]1O[C@@H]2C[C@@H]1O (racemic) [Example 82, rac-(1R,2R,4S,5R,6S)-6-hydroxy-4-(3-(trifluoromethyl)phenyl)-N-(4-(trifluoromethyl)pyridin-2-yl)-8-oxatricyclo[3.2.1.02,4]octane-2-carboxamide]
  pIC50: < 4.52
  Emax: 36%

## COc1cc([C@@]23C[C@]2(C(=O)Nc2cc(C(F)(F)F)ccc2OC)[C@H]2C[C@H](O)[C@@H]3O2)ccn1 (racemic) [Example 36, rac-(1R,2R,4S,5R,6S)-6-hydroxy-N-(2-methoxy-5-(trifluoromethyl)phenyl)-4-(2-methoxypyridin-4-yl)-8-oxatricyclo[3.2.1.02,4]octane-2-carboxamide]
  pIC50: 4.74
  Emax: 65%

## Cc1cc(NC(=O)[C@]23C[C@@]2(c2cn(C)nc2C(F)(F)F)[C@H]2O[C@@H]3C[C@@H]2O)cc(C(F)(F)F)c1 (racemic) [Example 52, rac-(1R,2R,4S,5R,6S)-6-hydroxy-4-(1-methyl-3-(trifluoromethyl)-1H-pyrazol-4-yl)-N-(3-methyl-5-(trifluoromethyl)phenyl)-8-oxatricyclo[3.2.1.02,4]octane-2-carboxamide]
  pIC50: 4.68
  Emax: 70%

## COc1cc([C@@]23C[C@]2(C(=O)Nc2ccc(C(F)(F)F)cc2)[C@H]2C[C@H](O)[C@@H]3O2)ccn1 (racemic) [Example 76, rac-(1R,2R,4S,5R,6S)-6-hydroxy-4-(2-methoxypyridin-4-yl)-N-(4-(trifluoromethyl)phenyl)-8-oxatricyclo[3.2.1.02,4]octane-2-carboxamide]
  pIC50: 4.82
  Emax: 57%

— patent US12365692B2, “6-hydroxy-8-oxatricyclo[3.2.1.02,4]octane-2-carboxamide derivatives for inducing chondrogenesis for treating joint damage” (NOVARTIS AG, priority 2018, dated 2025)
